This note sets out measurements from US5175183A, “Lipoxygenase inhibiting compounds” (Abbott Laboratories, priority 1991, dated 1992).

One assay deals with T1, 5-lipoxygenase (Rattus norvegicus, UniProt P12527).
T1 construct: 20,000×g supernatant from homogenized RBL-1 cells; endogenous in cells; host or cells: RBL-1 cells (20,000×g supernatant of homogenate)
T1 sequence (P12527 1-673): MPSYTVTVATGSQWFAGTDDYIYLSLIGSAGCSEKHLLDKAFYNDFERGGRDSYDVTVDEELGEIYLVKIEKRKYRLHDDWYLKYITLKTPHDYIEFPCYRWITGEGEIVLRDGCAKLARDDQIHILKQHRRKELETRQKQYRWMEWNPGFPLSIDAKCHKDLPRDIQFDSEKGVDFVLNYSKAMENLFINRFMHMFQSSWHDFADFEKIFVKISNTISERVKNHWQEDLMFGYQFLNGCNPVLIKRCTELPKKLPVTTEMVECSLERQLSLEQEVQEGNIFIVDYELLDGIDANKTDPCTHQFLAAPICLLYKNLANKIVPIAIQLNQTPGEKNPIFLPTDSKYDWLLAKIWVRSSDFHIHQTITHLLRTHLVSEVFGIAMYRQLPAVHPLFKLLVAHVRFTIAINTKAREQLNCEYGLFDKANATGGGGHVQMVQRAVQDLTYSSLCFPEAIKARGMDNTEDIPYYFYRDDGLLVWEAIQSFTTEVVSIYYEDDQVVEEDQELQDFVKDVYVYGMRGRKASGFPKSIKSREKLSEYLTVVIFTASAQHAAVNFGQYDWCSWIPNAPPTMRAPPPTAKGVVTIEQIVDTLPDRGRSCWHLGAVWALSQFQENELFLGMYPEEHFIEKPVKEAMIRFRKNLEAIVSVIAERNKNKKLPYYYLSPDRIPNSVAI
Put plainly: In Vitro 5-lipoxygenase Inhibitory Activity (20,000×g supernatant from homogenized RBL-1 cells). The assay is classed as biochemical. To be noted: read-out: IC50 (concentration of compound producing 50% enzyme inhibition). The procedure:
The compounds of this invention are potent inhibitors of 5-lipoxygenase. Their activity was determined using the 20,000×g supernatant from homogenized RBL-1 cells in a similar manner as that described by Dyer and coworkers (Dyer, R. D.; Haviv, F.; Hanel, A. M.; Bornemier, D. A.; Carter, G. W. Fed. Proc., Fed. Am. Soc. Exp. Biol. 1984, 43, 1462A). IC50 values (concentration of compound producing 50% enzyme inhibition) were calculated by linear regression analysius of percentage inhibition versus log inhibitor concentration plots.

The test system of the next assay is Leukotriene Biosynthesis. Put plainly: In Vivo Inhibition of Leukotriene Biosynthesis (rat peritoneal anaphylaxis model). To be noted: oral gavage 200 μmol/kg one hour prior to antigen challenge, peritoneal fluid leukotrienes 15 minutes after challenge, vs mean of control group. The procedure: Inhibition of the biosynthesis of leukotrienes in vivo after oral administration of compound was determined using a rat peritoneal anaphylaxis model. In this model rats were injected intraperitoneally (ip) with rabbit antibody to bovine serum albumin (BSA) and three hours later injected ip with BSA to induce an antigen-antibody response. Rats were sacrificed 15 minutes after this challenge and the peritoneal fluids were collected and analyzed for leukotriene levels. Test compound was administered by oral gavage one hour prior to the antigen challenge. Percent inhibition values were determined by comparing the treatment group to the mean of the control group.

Regarding `CCCCOc1ccc(C(C)NC(=O)NO)cc1` (stereo not shown) [Example 3, N'-hydroxy-N-[1-(4-butoxyphenyl)ethyl]urea], the IC50 at 5-lipoxygenase was 3.8 µM.
Regarding `Cc1cc(C(C)NC(=O)N(C)O)c(C)s1` (stereo not shown) [Example 13, N'-hydroxy-N'-methyl-N-[1-(2,5-dimethylthien 3-yl)ethyl]urea], the IC50 on 5-lipoxygenase is 0.5 µM. For the same compound, the “Percent Inhibition With 200 μmol/kg oral dose” value with Leukotriene Biosynthesis was determined as 49%.
With `CC(NC(=O)NO)c1ccc(OCc2ccccc2)cc1` (stereo not shown) [Example 1, N'-hydroxy-N-[1-(phenylmethoxyphenyl)ethyl]urea], at 5-lipoxygenase, the IC50 stood at 1.2 µM.
For `O=C(NCc1ccsc1)N(O)CCO` [Example 12, N'-hydroxy-N'-(2-hydroxyethyl)-N-[(thien-3-yl)-methyl]urea], the IC50 on 5-lipoxygenase worked out at 13 µM. In addition, the “Percent Inhibition With 200 μmol/kg oral dose” value in the assay on Leukotriene Biosynthesis came out at 79%.
`CC(NC(=O)N(C)O)c1cc2ccccc2o1` (stereo not shown) [Example 10, N'-hydroxy-N'-methyl-N-[(1-benzofur-2-yl)-ethyl]urea]: at 5-lipoxygenase, the IC50 came out at 0.27 µM. In addition, the “Percent Inhibition With 200 μmol/kg oral dose” value in the assay on Leukotriene Biosynthesis was determined as 50%.
With “N'-hydroxy-N'methoxy-N-[(1-naphth-2-yl)ethyl]urea [Example 5]”, at 5-lipoxygenase, the IC50 stood at 27 µM.
The same measure, in the same setting: the same measure for `O=C(NO)N[C@@H]1C[C@H]1c1ccccc1` (relative stereo) [Example 11, N'-hydroxy-N-1-(trans-2-phenylcyclopropyl)urea]: 28 µM.
Regarding `CC(NC(=O)N(C)O)c1ccc(OCc2ccccc2)cc1` (stereo not shown) [Example 2, N'-hydroxy-N'-methyl-N-[1-(4-phenylmethoxyphenyl)ethyl]urea], the IC50 on 5-lipoxygenase worked out at 0.3 µM. In the assay with Leukotriene Biosynthesis, the “Percent Inhibition With 200 μmol/kg oral dose” value is 86%.
For `CN(O)C(=O)NCc1ccsc1` [Example 8, N'-hydroxy-N'-methyl-N-[(thienyl-3-yl)methyl]urea], in that order: 4 µM and 92%.
For `CN(O)C(=O)NCc1cccs1` [Example 6, N'-hydroxy-N'-methyl-N-[(thien-2-yl)methyl]urea], in that order: 3.6 µM and 67%.
For `CC(NC(=O)NO)c1ccc2ccccc2c1` (stereo not shown) [Example 4, N'-hydroxy-N-[(1-naphth-2-yl)ethyl]urea], on 5-lipoxygenase, the IC50 is 4.6 µM.
For the compound `Cc1cc(C(C)NC(=O)NO)c(C)s1` (stereo not shown) [Example 9, N'-hydroxy-N-[1-(2,5-dimethylthien-3-yl)ethyl]urea], the IC50 at 5-lipoxygenase amounted to 8.4 µM.
The same measure, in the same setting: to `CC(NC(=O)NO)c1cc2ccccc2o1` (stereo not shown) [Example 7, N'-hydroxy-N-[(1-benzofuran-2-yl)ethyl]urea] belongs 12.7 µM.
